{"source": "patent US20130130985A1", "about": "(priority 2010, published 2013)", "key": {"[1]": {"target": "T1, hV1aR (Homo sapiens, UniProt P37288)", "T1 construct": "expressed in transfected cells; host or cells: COS-1", "T1 sequence (P37288 whole entry)": "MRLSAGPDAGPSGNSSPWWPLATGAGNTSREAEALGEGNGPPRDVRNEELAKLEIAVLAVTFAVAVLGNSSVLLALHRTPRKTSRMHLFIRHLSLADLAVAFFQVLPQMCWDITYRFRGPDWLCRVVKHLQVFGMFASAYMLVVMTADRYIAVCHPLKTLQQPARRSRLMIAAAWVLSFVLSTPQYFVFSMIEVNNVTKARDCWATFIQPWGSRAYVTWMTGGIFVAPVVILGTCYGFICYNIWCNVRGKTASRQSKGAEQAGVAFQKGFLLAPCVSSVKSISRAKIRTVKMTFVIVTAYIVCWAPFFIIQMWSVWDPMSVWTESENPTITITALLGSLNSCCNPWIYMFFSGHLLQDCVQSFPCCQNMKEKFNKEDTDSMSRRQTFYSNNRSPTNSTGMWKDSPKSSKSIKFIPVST", "test": "Functional IP-One HTRF assay", "format": "cell-based", "description": "(§1) Cells were lysed by the addition of the HTRF reagents (the europium cryptate-labeled anti-IP1 antibody and the d2-labeled IP1 analogue) diluted in lysis buffer. The assays were incubated for 1 h at room temperature."}, "[2]": {"conditions": "phosphate buffer pH 7.4, 37° C., over a period of 48 h"}, "[3]": {"target": "T1, hV1aR", "test": "Functional FLIPR assay (calcium signalling)", "format": "cell-based", "description": "(§2) To allow for complete de-esterification of the dye, cells were washed 5-10 min with PSS before transfer to a FLIPR^TETRA (Molecular Devices, Sunnyvale, Calif.) fluorescent plate reader. […] The baseline fluorescence was set to a minimum of 1000 arbitrary fluorescence units by adjusting camera gain and excitation intensity. Compounds were added as 3× concentrated stock solutions in PSS, with 10 baseline fluorescence readings prior to compound addition followed by fluorescence reading every second for 180 s.\n(§3) As previously described, raw fluorescence data was converted to ΔF/F values by subtracting baseline fluorescence readings from subsequent time points and dividing by baseline fluorescence values. […] A 4-parameter Hill equation with Hill coefficient=1 was fitted to the data using GraphPad Prism (Version 4.00, San Diego, Calif.)."}, "[4]": {"target": "T2, hOTR (Homo sapiens, UniProt P30559)", "T2 construct": "expressed in transfected cells; host or cells: COS-1", "T2 sequence (P30559 1-389)": "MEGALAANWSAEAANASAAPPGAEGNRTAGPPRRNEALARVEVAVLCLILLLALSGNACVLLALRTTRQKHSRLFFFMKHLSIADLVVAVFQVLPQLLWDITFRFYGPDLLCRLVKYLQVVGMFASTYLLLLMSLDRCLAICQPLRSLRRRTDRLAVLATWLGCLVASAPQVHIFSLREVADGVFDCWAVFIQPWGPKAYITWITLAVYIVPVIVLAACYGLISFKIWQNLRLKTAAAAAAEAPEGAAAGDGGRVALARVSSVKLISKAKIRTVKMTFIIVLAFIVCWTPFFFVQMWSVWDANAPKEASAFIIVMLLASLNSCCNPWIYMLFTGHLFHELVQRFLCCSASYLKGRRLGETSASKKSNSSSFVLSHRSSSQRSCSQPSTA", "test": "Functional IP-One HTRF assay", "format": "cell-based", "conditions": "for Emax: read-out: hOTR Emax", "description": "as §1"}, "[5]": {"target": "T3, hV1bR (Homo sapiens, UniProt P47901)", "T3 construct": "expressed in transfected cells; host or cells: COS-1", "T3 sequence (P47901 1-424)": "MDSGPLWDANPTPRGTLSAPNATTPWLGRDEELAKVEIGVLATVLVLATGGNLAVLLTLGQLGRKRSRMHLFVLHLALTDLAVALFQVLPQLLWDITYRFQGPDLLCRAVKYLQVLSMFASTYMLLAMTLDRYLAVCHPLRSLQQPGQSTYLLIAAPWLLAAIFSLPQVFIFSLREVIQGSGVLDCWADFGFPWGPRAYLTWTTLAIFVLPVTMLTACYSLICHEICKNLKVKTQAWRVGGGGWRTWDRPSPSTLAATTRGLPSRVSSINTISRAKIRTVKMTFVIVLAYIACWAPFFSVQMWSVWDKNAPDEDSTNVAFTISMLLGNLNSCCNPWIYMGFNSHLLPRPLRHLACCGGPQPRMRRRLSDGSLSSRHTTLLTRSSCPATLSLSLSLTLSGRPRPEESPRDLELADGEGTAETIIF", "test": "Functional IP-One HTRF assay", "format": "cell-based", "description": "as §1"}, "[6]": {"target": "T2, hOTR", "test": "Radioligand binding assay, displacement of 3H-OT, COS-1 membranes"}, "[7]": {"target": "T3, hV1bR", "test": "Functional FLIPR assay (calcium signalling)", "format": "cell-based", "description": "as §2, §3"}, "[8]": {"target": "T2, hOTR", "test": "Functional FLIPR assay (calcium signalling)", "format": "cell-based", "description": "as §2, §3"}, "[9]": {"target": "T3, hV1bR", "test": "Radioligand binding assay, displacement of 3H-AVP, COS-1 membranes"}, "[10]": {"test": "Stability assay in rat plasma and human serum (metabolic half life)", "conditions": "Half life (h), 37° C., matrix of the values not specified", "procedure": "300 μL rat plasma and human serum (Sigma Aldrich) was incubated at 37° C. for 30 min. 50 mL of peptide sample (0.3 mM) in 0.1 M phosphate buffer, pH 7.2 was added to the rat plasma and human serum. The vortexed mixture was incubated at 37° C."}}, "note": "Where a SMILES comes first, the peptide text is derived from it.", "data": [{"smiles": "CC[C@H](C)[C@@H]1NC(=O)[C@H](Cc2ccc(O)cc2)NC(=O)[C@@H](N)CSSC[C@@H](C(=O)N2CCC[C@H]2C(=O)N[C@@H](CC(C)C)C(=O)NCC(N)=O)NC(=O)[C@H](CC(N)=O)NC(=O)[C@H](CCC(N)=O)NC1=O", "note": "[OT, Oxytocin]", "values": [{"measurement": "Emax", "setting": "[1]", "result": "79 ± 9", "unit": "%"}, {"measurement": "degradation in phosphate buffer", "setting": "[2]", "result": "no degradation was observed"}, {"measurement": "Emax", "setting": "[3]", "result": 71, "unit": "%"}]}, {"smiles": "CC[C@H](C)[C@@H]1NC(=O)[C@H](Cc2ccc(O)cc2)NC(=O)[C@@H](N)CCSC[C@@H](C(=O)N2CCC[C@H]2C(=O)N[C@@H](CC(C)C)C(=O)NCC(N)=O)NC(=O)[C@H](CC(N)=O)NC(=O)[C@H](CCC(N)=O)NC1=O", "note": "[[CH2—S]-OT] (HELM PEPTIDE1{[N[C@@H](CC[*:3])C(=O)[*:2]].Y.I.Q.N.C.P.L.G.[am]}$PEPTIDE1,PEPTIDE1,1:R3-6:R3$$$V2.0; N-terminus and C-terminus assumed)", "values": [{"measurement": "Emax", "setting": "[1]", "result": "75 ± 8", "unit": "%"}, {"measurement": "Emax", "setting": "[4]", "result": "64 ± 14", "unit": "%"}]}, {"smiles": "CC[C@H](C)[C@@H]1NC(=O)[C@H](Cc2ccc(O)cc2)NC(=O)[C@@H](N)CSSC[C@@H](C(=O)N2CCC[C@H]2C(=O)N[C@@H](CC(C)C)C(=O)NCC(=O)O)NC(=O)[C@H](CC(N)=O)NC(=O)[C@H](CCC(N)=O)NC1=O", "note": "[[S—S]-OT-OH, OT-OH]", "values": [{"measurement": "Emax", "setting": "[1]", "result": "77 ± 24", "unit": "%"}, {"measurement": "Emax", "setting": "[5]", "result": "96 ± 6", "unit": "%"}, {"measurement": "drop in functional efficacy at the hV1bR", "setting": "[5]; compared to OT", "result": "10-30 fold"}, {"measurement": "drop in functional efficacy at the hOTR", "setting": "[4]; compared to OT", "result": "10-30 fold"}, {"measurement": "Emax", "setting": "[4]", "result": "82 ± 13", "unit": "%"}]}, {"smiles": "CC[C@H](C)[C@@H]1NC(=O)[C@H](Cc2ccc(O)cc2)NC(=O)CCSSC[C@@H](C(=O)N2CCC[C@H]2C(=O)N[C@@H](CC(C)C)C(=O)NCC(N)=O)NC(=O)[C@H](CC(N)=O)NC(=O)[C@H](CCC(N)=O)NC1=O", "note": "[dOT]", "values": [{"measurement": "Emax", "setting": "[5]", "result": "67 ± 10", "unit": "%"}, {"measurement": "EC50", "setting": "[5]; IP-One assay, COS-1", "result": "470 ± 422", "unit": "nM"}, {"measurement": "EC50", "setting": "[4]; IP-One assay, COS-1", "result": 0.71, "unit": "nM"}, {"measurement": "Emax", "setting": "[4]", "result": 100, "unit": "%"}, {"measurement": "IC50", "setting": "[6]", "result": 1.7, "unit": "nM"}, {"measurement": "Emax", "setting": "[3]", "result": 54, "unit": "%"}, {"measurement": "EC50", "setting": "[3]; FLIPR assay, COS-1", "result": 46.1, "unit": "nM"}, {"measurement": "Emax", "setting": "[7]", "result": 100, "unit": "%"}, {"measurement": "EC50", "setting": "[7]; FLIPR assay, COS-1", "result": "15.9 ± 5.96", "unit": "nM"}, {"measurement": "Emax", "setting": "[8]", "result": 89, "unit": "%"}, {"measurement": "EC50", "setting": "[8]; FLIPR assay, COS-1", "result": 0.39, "unit": "nM"}, {"measurement": "IC50", "setting": "[9]", "result": "351 ± 125", "unit": "nM"}]}, {"smiles": "NC(=O)CC[C@@H]1NC(=O)[C@H](Cc2ccccc2)NC(=O)[C@H](Cc2ccc(O)cc2)NC(=O)[C@@H](N)CSSC[C@@H](C(=O)N2CCC[C@H]2C(=O)N[C@@H](CCCN=C(N)N)C(=O)NCC(N)=O)NC(=O)[C@H](CC(N)=O)NC1=O", "note": "[AVP, arginine-vasopressin]", "values": [{"measurement": "degradation in phosphate buffer", "setting": "[2]", "result": "no degradation was observed"}, {"measurement": "half-life at 0.043 mM", "setting": "[10]", "result": 2, "unit": "h"}]}]}
